The values below are quoted from earlier work in patent publication US20220288147A1, “GINSENG COMPOSITION AND USE THEREOF AS A MEDICAMENT” (BOTALYS SA, priority 2019, published 2022).

For the series the following is noted: oral.

On to `CC(C)=CCC[C@](C)(O[C@@H]1O[C@H](CO)[C@@H](O)[C@H](O)[C@H]1O)[C@H]1CC[C@]2(C)[C@@H]1[C@H](O)C[C@@H]1[C@@]3(C)CC[C@H](O)C(C)(C)[C@@H]3[C@@H](O[C@@H]3O[C@H](CO)[C@@H](O)[C@H](O)[C@H]3O)C[C@]12C` [Rg1], for which the “Absorption rates of an orally administered dose” value is recorded as ≥ 0.1%.

For `CC(C)=CCC[C@](C)(O)[C@H]1CC[C@]2(C)[C@@H]1[C@H](O)C[C@@H]1[C@@]3(C)CC[C@H](O)C(C)(C)[C@@H]3[C@@H](O[C@@H]3O[C@H](CO)[C@@H](O)[C@H](O)[C@H]3O[C@@H]3O[C@@H](C)[C@H](O)[C@@H](O)[C@H]3O)C[C@]12C` [Rg2], the “Absorption rates of an orally administered dose” value is given as ≥ 1.9%.
